Measured values from PubChem BioAssay (NCI).
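Dose response: 5 concentrations. Exposure: 48 h. Format: 96-well plates. Endpoint: linear interpolation; highest concentration if not reached. Abbreviation: GI50, concentration required for 50% inhibition of growth. Definition used: TGI = concentration required for complete inhibition of growth.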

Columns and labels:
Assay in all cases: growth of human tumour cells (NCI), 48 h
HT29 colon = tested on: HT29 colon
NCI-H460 lung = tested on: NCI-H460 lung
DU-145 prostate = tested on: DU-145 prostate
NCI-H522 lung = tested on: NCI-H522 lung
U251 CNS = tested on: U251 CNS
MCF7 breast = tested on: MCF7 breast
OVCAR-4 ovarian = tested on: OVCAR-4 ovarian
786-0 renal = tested on: 786-0 renal
MALME-3M melanoma = tested on: MALME-3M melanoma
SK-MEL-5 melanoma = tested on: SK-MEL-5 melanoma
CAKI-1 renal = tested on: CAKI-1 renal
MDA-MB-468 breast = tested on: MDA-MB-468 breast
UO-31 renal = tested on: UO-31 renal
EKVX NSCLC = tested on: EKVX NSCLC
KM12 colon = tested on: KM12 colon
NCI-H226 lung = tested on: NCI-H226 lung
HOP-62 NSCLC = tested on: HOP-62 NSCLC
RXF 393 renal = tested on: RXF 393 renal
HL-60(TB) leukemia = tested on: HL-60(TB) leukemia
OVCAR-3 ovarian = tested on: OVCAR-3 ovarian
CCRF-CEM leukemia = tested on: CCRF-CEM leukemia
BT-549 breast = tested on: BT-549 breast
NCI/ADR-RES ovarian = tested on: NCI/ADR-RES ovarian
T-47D breast = tested on: T-47D breast
SN12C renal = tested on: SN12C renal
TK-10 renal = tested on: TK-10 renal
HCC-2998 colon = tested on: HCC-2998 colon
UACC-62 melanoma = tested on: UACC-62 melanoma
SNB-75 CNS = tested on: SNB-75 CNS
IGROV1 ovarian = tested on: IGROV1 ovarian
SF-539 CNS = tested on: SF-539 CNS
HOP-92 NSCLC = tested on: HOP-92 NSCLC
MDA-MB-435 = tested on: MDA-MB-435
MDA-MB-231 breast = tested on: MDA-MB-231 breast
HCT-15 colon = tested on: HCT-15 colon
SK-MEL-28 melanoma = tested on: SK-MEL-28 melanoma
SK-MEL-2 melanoma = tested on: SK-MEL-2 melanoma
OVCAR-5 ovarian = tested on: OVCAR-5 ovarian
ACHN renal = tested on: ACHN renal
RPMI-8226 leukemia = tested on: RPMI-8226 leukemia
NCI-H23 lung = tested on: NCI-H23 lung
A498 renal = tested on: A498 renal
SR leukemia = tested on: SR leukemia
COLO 205 colon = tested on: COLO 205 colon
SF-295 CNS = tested on: SF-295 CNS
SNB-19 CNS = tested on: SNB-19 CNS
K-562 leukemia = tested on: K-562 leukemia
SK-OV-3 ovarian = tested on: SK-OV-3 ovarian
M14 melanoma = tested on: M14 melanoma
SF-268 CNS = tested on: SF-268 CNS
SW-620 colon = tested on: SW-620 colon
MOLT-4 leukemia = tested on: MOLT-4 leukemia
UACC-257 melanoma = tested on: UACC-257 melanoma
HS 578T breast = tested on: HS 578T breast
A549 NSCLC = tested on: A549 NSCLC
HCT-116 colon = tested on: HCT-116 colon
OVCAR-8 ovarian = tested on: OVCAR-8 ovarian
PC-3 prostate = tested on: PC-3 prostate
LOX IMVI melanoma = tested on: LOX IMVI melanoma

COc1cc2c3c(n(CCCNCCO)c(=O)c2cc1OC)-c1nc2c(cc1C3=O)OCO2
GI50 (HT29 colon): 2.69 µM | TGI (HT29 colon): 11.3 µM | GI50 (NCI-H460 lung): 1.22 µM | TGI (NCI-H460 lung): 11.8 µM | GI50 (DU-145 prostate): 2.71 µM | TGI (DU-145 prostate): 14.1 µM | GI50 (NCI-H522 lung): 0.886 µM | TGI (NCI-H522 lung): 3.04 µM | GI50 (U251 CNS): 0.82 µM | TGI (U251 CNS): 10.7 µM | GI50 (MCF7 breast): 0.256 µM | TGI (MCF7 breast): 8.62 µM | GI50 (OVCAR-4 ovarian): 13 µM | TGI (OVCAR-4 ovarian): 49.5 µM | GI50 (786-0 renal): 2.43 µM | TGI (786-0 renal): 11.8 µM | GI50 (MALME-3M melanoma): 5.08 µM | TGI (MALME-3M melanoma): 19.6 µM | GI50 (SK-MEL-5 melanoma): 1.54 µM | TGI (SK-MEL-5 melanoma): 10.5 µM | GI50 (CAKI-1 renal): 2.39 µM | TGI (CAKI-1 renal): 16.5 µM | GI50 (MDA-MB-468 breast): 1.41 µM | TGI (MDA-MB-468 breast): 3.21 µM | GI50 (UO-31 renal): 7.47 µM | TGI (UO-31 renal): 21.7 µM | GI50 (EKVX NSCLC): 7.47 µM | TGI (EKVX NSCLC): 21.2 µM | GI50 (KM12 colon): 14.2 µM | TGI (KM12 colon): 33.2 µM | GI50 (NCI-H226 lung): 1.54 µM | TGI (NCI-H226 lung): 6.62 µM | GI50 (HOP-62 NSCLC): 0.416 µM | TGI (HOP-62 NSCLC): 4.48 µM | GI50 (RXF 393 renal): 1.83 µM | TGI (RXF 393 renal): 7.21 µM | GI50 (HL-60(TB) leukemia): 0.64 µM | TGI (HL-60(TB) leukemia): 12.2 µM | GI50 (OVCAR-3 ovarian): 5.65 µM | TGI (OVCAR-3 ovarian): 20.8 µM | GI50 (CCRF-CEM leukemia): 0.262 µM | TGI (CCRF-CEM leukemia): 1.86 µM | GI50 (BT-549 breast): 6.31 µM | TGI (BT-549 breast): 20.5 µM | GI50 (NCI/ADR-RES ovarian): 58.1 µM | TGI (NCI/ADR-RES ovarian): > 100 µM | GI50 (T-47D breast): 1.13 µM | TGI (T-47D breast): 12.9 µM | GI50 (SN12C renal): 3.94 µM | TGI (SN12C renal): 16.4 µM | GI50 (TK-10 renal): 19 µM | TGI (TK-10 renal): 46 µM | GI50 (HCC-2998 colon): 2.14 µM | TGI (HCC-2998 colon): 13.2 µM | GI50 (UACC-62 melanoma): 2.38 µM | TGI (UACC-62 melanoma): 12.8 µM | GI50 (SNB-75 CNS): 0.83 µM | TGI (SNB-75 CNS): 28.2 µM | GI50 (IGROV1 ovarian): 11.4 µM | TGI (IGROV1 ovarian): 26.2 µM | GI50 (SF-539 CNS): 0.996 µM | TGI (SF-539 CNS): 3.24 µM | GI50 (HOP-92 NSCLC): 9.2 µM | TGI (HOP-92 NSCLC): 23.3 µM | GI50 (MDA-MB-435): 8.89 µM | TGI (MDA-MB-435): 22.5 µM | GI50 (MDA-MB-231 breast): 11.3 µM | TGI (MDA-MB-231 breast): 24.5 µM | GI50 (HCT-15 colon): 9.17 µM | TGI (HCT-15 colon): 27.9 µM | GI50 (SK-MEL-28 melanoma): 13.5 µM | TGI (SK-MEL-28 melanoma): 26.9 µM | GI50 (SK-MEL-2 melanoma): 17.7 µM | TGI (SK-MEL-2 melanoma): 33 µM | GI50 (OVCAR-5 ovarian): 4.39 µM | TGI (OVCAR-5 ovarian): 15.4 µM | GI50 (ACHN renal): 3.46 µM | TGI (ACHN renal): 14 µM | GI50 (RPMI-8226 leukemia): 2.54 µM | TGI (RPMI-8226 leukemia): 14.8 µM | GI50 (NCI-H23 lung): 0.582 µM | TGI (NCI-H23 lung): 3.27 µM | GI50 (A498 renal): 13.4 µM | TGI (A498 renal): 27.2 µM | GI50 (SR leukemia): 0.624 µM | TGI (SR leukemia): 11.3 µM | GI50 (COLO 205 colon): 5.88 µM | TGI (COLO 205 colon): 21.9 µM | GI50 (SF-295 CNS): 0.702 µM | TGI (SF-295 CNS): 12 µM | GI50 (SNB-19 CNS): 2.52 µM | TGI (SNB-19 CNS): 14.6 µM | GI50 (K-562 leukemia): 1.56 µM | TGI (K-562 leukemia): 15 µM | GI50 (SK-OV-3 ovarian): 3.27 µM | TGI (SK-OV-3 ovarian): 12.4 µM | GI50 (M14 melanoma): 4.35 µM | TGI (M14 melanoma): 16.8 µM | GI50 (SF-268 CNS): 3.24 µM | TGI (SF-268 CNS): 19.9 µM | GI50 (SW-620 colon): 2.01 µM | TGI (SW-620 colon): 16.8 µM | GI50 (MOLT-4 leukemia): 0.364 µM | TGI (MOLT-4 leukemia): 34.8 µM | GI50 (UACC-257 melanoma): 15.4 µM | TGI (UACC-257 melanoma): 31.2 µM | GI50 (HS 578T breast): 11.6 µM | TGI (HS 578T breast): 31.6 µM | GI50 (A549 NSCLC): 6.72 µM | TGI (A549 NSCLC): 21.6 µM | GI50 (HCT-116 colon): 1.25 µM | TGI (HCT-116 colon): 2.67 µM | GI50 (OVCAR-8 ovarian): 3.61 µM | TGI (OVCAR-8 ovarian): 17.9 µM | GI50 (PC-3 prostate): 3.06 µM | TGI (PC-3 prostate): 19.1 µM | GI50 (LOX IMVI melanoma): 0.534 µM | TGI (LOX IMVI melanoma): 1.98 µM
